PubChem BioAssay AID2060912 (Molecular Pharmacology Branch, DTP, NCI, 2025)
pIC50: −log10 of the molar value.

Tested on: HUVEC/MSC spheroids viability
Assay: Human HUVEC/MSC cell line growth inhibition [KRAS2];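 as to viability, T/C: percent of DMSO vehicle control luminescence so 100% = untreated viability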
Settings: for pIC50: curve of first compound; for viability, T/C: stronger effect = lower value
Text: Multicellular complex tumor spheroid response to RAS pathway inhibitors in combination with a targeted agents in patient-derived cell lines with oncogenic KRAS variants from multiple cancer types
A high-throughput screen of multi-cell type tumor spheroids was designed to identify active combinations of targeted small molecules and KRAS pathway inhibitors. Complex spheroids include a stromal component modeled by human endothelial cells (HUVEC) and fibroblasts modeled by human mesenchymal stem cells (MSCs). The concentration ranges selected for each drug and investigational agent were based upon clinically achievable concentrations if the clinical Cmax of the agent was known. * [This particular assayID is a followup dataset requested by reviewers of the manuscript. It is a test of the HUVEC and MSC without the tumor cells, and was conducted using different drug plates and a different plate layout.]
Compounds. The drugs and investigational agents: BI-3406 (NSC825286), BAY-293 (NSC824723), batoprotafib (TNO155; NSC825523), sotorasib (AMG 510; NSC818433), MRTX1257 (NSC819558), elimusertib (BAY 1895344; NSC800525), molibresib (GSK525762; NSC774829), temuterkib (LY3214996; NSC803410), venetoclax (NSC766270), alisertib (NSC759677), olaparib (NSC753686), talazoparib (NSC767125), erdafitinib (NSC781556), ipatasertib (NSC767898), cabozantinib (NSC761068), nintedanib (NSC756659), abemaciclib (NSC768073), docetaxel (NSC628503), trametinib (NSC758246), and sapanisertib (NSC764658) were obtained from the National Cancer Institute (NCI) Developmental Therapeutics Program Chemical Repository. The FDA-approved anticancer drug set is available from the Developmental Therapeutics Program. […] The stock solutions were prepared in dimethyl sulfoxide (DMSO, Sigma-Aldrich, St. Louis, MO, cat. D2650) at 800-fold the tested concentration and stored at -70 degrees C prior to their use. All drugs and investigational agents were tested over a range starting from a high concentration at or near the clinical Cmax and decreasing in half-log increments. If the clinical Cmax for an agent had not been determined, the highest concentration tested was 10 microM.
Cell Culture. All cells were maintained in an incubator at 37 degrees C and 5% CO2 with 95% humidity. The PDC lines were cultured according to standard operating procedures established by the NCI PDMR (https://pdmr.cancer.gov/sops/default.htm). Briefly, all PDCs were thawed and cultured in Matrigel-coated flasks prepared with a working solution of 1X Ham's F-12 nutrient mix, without supplementation (Invitrogen, Waltham, MA, cat. 11765054), 100 U/mL penicillin-streptomycin (Invitrogen, cat. 15140122), and 2.5% Matrigel (Corning Inc., Corning, NY, cat. 354248) for the first three passages. All PDCs were cultured in complete DMEM/F-12 media containing advanced DMEM/F-12 (Invitrogen, cat. 12634028), 4.9% defined fetal bovine serum, heat inactivated (HyClone Laboratories Inc., Logan, UT, cat. SH30070.03HI), 389 ng/mL hydrocortisone (Sigma-Aldrich, cat. H4001), 9.7 ng/mL human EGF recombinant protein (Invitrogen, cat. PHG0313), 23.4 microg/mL adenine (Sigma-Aldrich, cat. A2786), 97.3 U/mL penicillin-streptomycin (Invitrogen, cat. 15140122), 1.9 mM L-glutamine (Invitrogen, cat. 25030081), and 9.7 microM Y-27632 dihydrochloride (Tocris Bioscience, Bristol, United Kingdom, cat. 1254). The PDCs were cultured in complete DMEM/F12 media without 9.7 microM Y-27632 dihydrochloride for at least two passages prior to the screen. The established cell line HOP-62 was cultured in RPMI 1640 medium, HEPES (Invitrogen, cat. 22400105) with 10% defined fetal bovine serum (HyClone Laboratories Inc., cat. SH30070.03) and 2 mM L-glutamine (Invitrogen, cat. 25030081). The pooled donor HUVEC were cultured in endothelial cell growth medium 2 (PromoCell, Heidelberg, Germany, cat. C-22011) and the hMSC were cultured in mesenchymal stem cell growth medium 2 (PromoCell, cat. C-28009). […]

Structure (SMILES): CC(=O)Nc1cccc(-n2c(=O)n(C3CC3)c(=O)c3c(Nc4ccc(I)cc4F)n(C)c(=O)c(C)c32)c1 + C=CC(=O)N1CCN(c2nc(=O)n(-c3c(C)ccnc3C(C)C)c3nc(-c4c(O)cccc4F)c(F)cc23)C(C)C1
- pIC50 (second compound 0.0316 µM): 7.79
- pIC50 (second compound 0.1 µM): 7.75
- pIC50 (second compound 0.316 µM): 7.77
- pIC50 (second compound 1 µM): 7.75
- pIC50 (second compound 3.16 µM): 7.79
- pIC50 (second compound 10 µM): 7.86
- viability, T/C (second compound 0.0316 µM, first compound 94.9 pM): 126%
- viability, T/C (second compound 0.0316 µM, first compound 0.0003 µM): 140%
- viability, T/C (second compound 0.0316 µM, first compound 0.000949 µM): 163%
- viability, T/C (second compound 0.0316 µM, first compound 0.003 µM): 114%
- viability, T/C (second compound 0.0316 µM, first compound 0.00949 µM): 77.1%
- viability, T/C (second compound 0.0316 µM, first compound 0.03 µM): 20.7%
- viability, T/C (second compound 0.1 µM, first compound 94.9 pM): 92.7%
- viability, T/C (second compound 0.1 µM, first compound 0.0003 µM): 130%
- viability, T/C (second compound 0.1 µM, first compound 0.000949 µM): 141%
- viability, T/C (second compound 0.1 µM, first compound 0.003 µM): 113%
- viability, T/C (second compound 0.1 µM, first compound 0.00949 µM): 88.3%
- viability, T/C (second compound 0.1 µM, first compound 0.03 µM): 18.6%
- viability, T/C (second compound 0.316 µM, first compound 94.9 pM): 126%
- viability, T/C (second compound 0.316 µM, first compound 0.0003 µM): 157%
- viability, T/C (second compound 0.316 µM, first compound 0.000949 µM): 151%
- viability, T/C (second compound 0.316 µM, first compound 0.003 µM): 119%
- viability, T/C (second compound 0.316 µM, first compound 0.00949 µM): 80.3%
- viability, T/C (second compound 0.316 µM, first compound 0.03 µM): 20.6%
- viability, T/C (second compound 1 µM, first compound 94.9 pM): 148%
- viability, T/C (second compound 1 µM, first compound 0.0003 µM): 133%
- viability, T/C (second compound 1 µM, first compound 0.000949 µM): 148%
- viability, T/C (second compound 1 µM, first compound 0.003 µM): 112%
- viability, T/C (second compound 1 µM, first compound 0.00949 µM): 89.8%
- viability, T/C (second compound 1 µM, first compound 0.03 µM): 19.7%
- viability, T/C (second compound 3.16 µM, first compound 94.9 pM): 144%
- viability, T/C (second compound 3.16 µM, first compound 0.0003 µM): 157%
- viability, T/C (second compound 3.16 µM, first compound 0.000949 µM): 170%
- viability, T/C (second compound 3.16 µM, first compound 0.003 µM): 120%
- viability, T/C (second compound 3.16 µM, first compound 0.00949 µM): 82%
- viability, T/C (second compound 3.16 µM, first compound 0.03 µM): 16.8%
- viability, T/C (second compound 10 µM, first compound 94.9 pM): 134%
- viability, T/C (second compound 10 µM, first compound 0.0003 µM): 157%
- viability, T/C (second compound 10 µM, first compound 0.000949 µM): 164%
- viability, T/C (second compound 10 µM, first compound 0.003 µM): 130%
- viability, T/C (second compound 10 µM, first compound 0.00949 µM): 70.4%
- viability, T/C (second compound 10 µM, first compound 0.03 µM): 8.78%
